Laboratory results reported in patent US11505558B1, “Antiviral heterocyclic compounds” (Enanta Pharmaceuticals, Inc., priority 2019, dated 2022).

Experiments:
[1] = tested on: genotype A, "Long" strain RSV; test: RSV-A assay (CPE, ATPlite readout in Hep-2 cells); type: cell-based; conditions: human respiratory syncytial virus, HEp-2, Hep-2 cells, genotype A "Long" strain RSV, MOI 0.1; read-out: Human RSV-A (“Long” strain) EC50
Procedure, shortened: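 Protection from RSV-induced cytopathic effect, measured as ATPlite luminescence after 5 days, gave EC50 values. Assay used genotype A Long strain at MOI 0.1 on Hep-2 cells seeded at 8,000/well in DMEM growth media with 10% FBS; compounds tested as 2-fold dilutions in duplicate.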

[2] = tested on: recombinant HMPV CAN97-83 (MPV-GFP1); test: HMPV antiviral assay (MPV-GFP1 eGFP fluorescence in Vero E6 cells); type: cell-based; conditions: human metapneumovirus, Vero C1008, 120 h, read-out: HMPV EC50
Procedure, shortened: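 Vero E6 cells in serum-free OptiMEM with 0.5 μg/mL TPCK-trypsin infected with eGFP-expressing HMPV CAN97-83 (MPV-GFP1) at MOI 0.05. 8-point […] ½-step dilutions from 8 or 2 μM, 0.5% DMSO, 5 days at 32 °C. eGFP fluorescence normalized to infected untreated wells; EC50 from four-parameter logistic fit.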

SMILES | EC50 [1] [nM] | EC50 [2] [nM]
COc1nc2c(OC(C)C)cc(C(=O)NC[C@](O)(c3cc4c(c(-c5ccc(F)cc5)n3)OC[C@]4(C)C(N)=O)C(F)(F)F)cc2s1 [Example 444] | < 200 | > 500
COc1nc2c(OC)cc(C(=O)NC[C@](O)(c3cc4c(c(-c5ccc(F)cc5)n3)OC[C@]4(C)C(N)=O)C(F)(F)F)cc2s1 [Example 445] | < 200 | < 500
COc1cc(C(=O)NC[C@](O)(c2cc3c(c(-c4ccc(F)cc4)n2)OC[C@]3(C)C(=O)NC2(C#N)CC2)C(F)(F)F)cc2cccnc12 [Example 451] | < 200 | < 500
CC(C)(O)[C@H](F)CNC(=O)[C@@]1(C)COc2c1cc([C@@](O)(CNC(=O)c1cc(OC3CC3)c3ncccc3c1)C(F)(F)F)nc2-c1ccc(F)cc1 [Example 459] | < 200 | > 500
C[C@]1(C(=O)NCCOC(N)=O)COc2c1cc([C@@](O)(CNC(=O)c1cc(OC3CC3)c3ncccc3c1)C(F)(F)F)nc2-c1ccc(F)cc1 [Example 460] | < 200 | > 500
C[C@]1(C(=O)NCCCN)COc2c1cc([C@@](O)(CNC(=O)c1cc(OC3CC3)c3ncccc3c1)C(F)(F)F)nc2-c1ccc(F)cc1 [Example 464] | < 200 | > 500
C[C@]1(C(=O)NCCO)COc2c1cc([C@@](O)(CNC(=O)c1cc(OC3CC3)c3ncccc3c1)C(F)(F)F)nc2-c1ccc(F)cc1 [Example 465] | < 200 | < 500
C[C@]1(C(=O)N[C@H]2C[C@@H](O)C2)COc2c1cc([C@@](O)(CNC(=O)c1cc(OC3CC3)c3ncccc3c1)C(F)(F)F)nc2-c1ccc(F)cc1 [Example 466] | < 200 | < 500
C[C@]1(C(=O)NC2CC(O)C2)COc2c1cc([C@@](O)(CNC(=O)c1cc(OC3CC3)c3ncccc3c1)C(F)(F)F)nc2-c1ccc(F)cc1 (some centres unmarked) [Example 467] | < 200 | < 500
CNC(=O)CNC(=O)[C@@]1(C)COc2c1cc([C@@](O)(CNC(=O)c1cc(OC3CC3)c3ncccc3c1)C(F)(F)F)nc2-c1ccc(F)cc1 [Example 473] | < 200 | > 500
C[C@]1(C(=O)NCc2ccco2)COc2c1cc([C@@](O)(CNC(=O)c1cc(OC3CC3)c3ncccc3c1)C(F)(F)F)nc2-c1ccc(F)cc1 [Example 475] | < 200 | < 500
C[C@]1(C(=O)NCCC(N)=O)COc2c1cc([C@@](O)(CNC(=O)c1cc(OC3CC3)c3ncccc3c1)C(F)(F)F)nc2-c1ccc(F)cc1 [Example 477] | < 200 | > 500
C[C@]1(C(=O)NCCCNC(N)=O)COc2c1cc([C@@](O)(CNC(=O)c1cc(OC3CC3)c3ncccc3c1)C(F)(F)F)nc2-c1ccc(F)cc1 [Example 479] | < 200 | > 500
CC(C)(CO)NC(=O)[C@@]1(C)COc2c1cc([C@@](O)(CNC(=O)c1cc(OC3CC3)c3ncccc3c1)C(F)(F)F)nc2-c1ccc(F)cc1 [Example 482] | < 200 | > 500
CC(C)(O)CNC(=O)[C@@]1(C)COc2c1cc([C@@](O)(CNC(=O)c1cc(OC3CC3)c3ncccc3c1)C(F)(F)F)nc2-c1ccc(F)cc1 [Example 484] | < 200 | < 500
C[C@]1(C(=O)NCCCO)COc2c1cc([C@@](O)(CNC(=O)c1cc(OC3CC3)c3ncccc3c1)C(F)(F)F)nc2-c1ccc(F)cc1 [Example 485] | < 200 | < 500
C[C@]1(C(=O)NC[C@@H](O)CO)COc2c1cc([C@@](O)(CNC(=O)c1cc(OC3CC3)c3ncccc3c1)C(F)(F)F)nc2-c1ccc(F)cc1 [Example 492] | < 200 | > 500
C[C@]1(C(=O)NC[C@H](O)CO)COc2c1cc([C@@](O)(CNC(=O)c1cc(OC3CC3)c3ncccc3c1)C(F)(F)F)nc2-c1ccc(F)cc1 [Example 493] | < 200 | > 500
CC(C)(O)CNC(=O)[C@@]1(C)COc2c1cc([C@@](O)(CNC(=O)c1ccc3nc(N)sc3c1)C(F)(F)F)nc2-c1ccc(F)cc1 [Example 497] | < 200 | > 500
